According to patent US20060073220A1, “Cinnamon extract enriched for polyphenols and methods of preparing same” (priority 2004, published 2006):
Converted amounts (≈) assume the structure as drawn.

Assays:
[1] = system: HSV-2; assay: antiviral assay, HSV-2; format: cell-based, Herpes simplex virus 2; conditions: positive control, HHF cells
[2] = system: HSV-1; assay: antiviral assay, HSV-1; format: cell-based, Herpes simplex virus 1; conditions: positive control, HHF cells
[3] = system: Punta Toro A; assay: antiviral assay, Punta Toro A; format: cell-based, Punta Toro A virus
[4] = system: Influenza B; assay: antiviral assay, Influenza B; format: cell-based; conditions: positive control, MDCK cells
[5] = system: Influenza A; assay: Influenza A assay (strain not stated for the control); format: cell-based, influenza A virus
[6] = system: Rhinovirus Type 2; assay: antiviral assay, Rhinovirus Type 2; format: cell-based
[7] = system: PIV (parainfluenza virus); assay: PIV (parainfluenza virus) assay; format: cell-based
[8] = system: RSV (respiratory syncytial virus); assay: RSV (respiratory syncytial virus) assay; format: cell-based
[9] = system: West Nile Virus; assay: antiviral assay, West Nile Virus; format: cell-based; conditions: positive control, Vero cells
[10] = system: Adenovirus Type 1; assay: antiviral assay, Adenovirus Type 1; format: cell-based

SMILES	ED50 HSV2 assay [1]	ED50 HSV1 assay [2]	ED50 Punta Toro A assay [3]	ED50 Influenza B assay [4]	ED50 Influenza A assay [5]	ED50 Rhinovirus assay [6]	ED50 PVI (parainfluenza virus) assay [7]	ED50 RSV assay [8]	ED50 West Nile viral assay [9]	ED50 Adenovirus type 1 assay [10]
Nc1nc2c(ncn2COCCO)c(=O)[nH]1 [acyclovir]	1 to 2 µg/mL	1 to 2 µg/mL								
NC(=O)c1ncn([C@@H]2O[C@H](CO)[C@@H](O)[C@H]2O)n1 [ribivarin]			20 µg/mL (≈ 81.9 µM)	2 to 3 µg/mL	2 to 3 µg/mL	< 1 µg/mL	20 µg/mL (≈ 81.9 µM)	20 µg/mL (≈ 81.9 µM)	20 µg/mL (≈ 81.9 µM)	10 µg/mL (≈ 40.9 µM)
